In brackets after ≈: the same amount, converted by molar mass. Where two headings read alike, the source gives them in different places.
Legend:
[1] = system: Stenotrophomonas maltophilia; test: Antibacterial susceptibility testing (MIC), S. maltophilia; type: cell-based; details: clinical isolate B32/1, read-out: MIC S. maltophilia B32/1
Protocol: (§1) Bacterial strains used in this study for antibacterial susceptibility testing (Table S5) were propagated using standard microbiological procedures. Minimal inhibitory concentrations (MICs) were determined following a standard double-dilution method. MICs were recorded as the lowest concentration of the compound where no visible growth was observed. After plating the dilutions around the MIC or growing them in fresh MH media, minimal bactericidal concentration (MBC) was recorded as the lowest concentration of the compound at which no colonies were formed or no growth was observed, respectively. For S. pneumoniae MICs were determined by adapting the standard double-dilution method to anaerobic conditions and of this microorganism (use of Todd Hewitt Yeast extract with 200 U/mL of catalase and continuous monitoring of growth).

[2] = system: Staphylococcus epidermidis; test: Antibacterial susceptibility testing (MIC/MBC), S. epidermidis; type: cell-based; details: Staphylococcus epidermidis
Protocol: (§2) Minimal inhibitory concentrations (MICs) were determined following a standard double-dilution method. […] For S. pneumoniae MICs were determined by adapting the standard double-dilution method to anaerobic conditions and of this microorganism (use of Todd Hewitt Yeast extract with 200 U/mL of catalase and continuous monitoring of growth).

[3] = Solubility in kinase buffer; type: physicochemical; details: kinase buffer in the presence of 10% DMSO
Pseudomonas aeruginosa = test: Antibacterial susceptibility testing (MIC), P. aeruginosa; type: cell-based; details: Pseudomonas aeruginosa, ATCC27853; strain ATCC 27853
Protocol: as §1

Acinetobacter baumannii = test: Antibacterial susceptibility testing (MIC), A. baumannii; type: cell-based; details: MDR clinical isolate NM8, read-out: MIC A. baumannii NM8
Protocol: as §1

Streptococcus suis = test: Antibacterial susceptibility testing (MIC), S. suis; type: cell-based; details: Streptococcus suis, read-out: MIC Streptococcus suis 3881/S10, strain 3881/S10
Protocol: as §1

Hemolysis assay = type: cell-based; details: human
Protocol: Hemolytic activity against human erythrocytes taken from a healthy donor was measured as previously described. The hemolysis experiments were carried out in accordance with the guidelines of the United Arab Emirates University (UAEU) Research Ethics Review Board. All experimental protocols were approved by the Research Ethics Review Board of UAEU and informed consent was obtained from all donors.

Escherichia coli = test: Antibacterial susceptibility testing (MIC/MBC), E. coli; type: cell-based; details: Escherichia coli
Protocol: as §2

E. coli PhoR (PhoR^E) = target: T1, E. coli PhoR (PhoR^E) (Escherichia coli, UniProt P08400); test: Aggregation analysis by native-PAGE, PhoR^E; details: 2 mM (S5 and S6 5 mM), 10% DMSO
T1 construct: The catalytic portion (DHp and CA domain) of E. coli PhoR (PhoR^E); made in house; host or cells: E. coli RIL
Protocol: E. coli PhoR and EnvZ, and S. aureus PhoR ([…], final concentration) were prepared in kinase buffer. […] DMSO in the assays was maintained to a final concentration 10% (v/v). After 30 min of incubation at room temperature Native polyacrylamide gel electrophoresis (Native-PAGE) loading buffer was added and samples loaded. Coomassie blue staining was used for protein visualization.

Staphylococcus aureus = test: Antibacterial susceptibility testing (MIC/MBC), S. aureus; type: cell-based; details: Staphylococcus aureus
Protocol: as §2

T1 sequence (P08400 210-425): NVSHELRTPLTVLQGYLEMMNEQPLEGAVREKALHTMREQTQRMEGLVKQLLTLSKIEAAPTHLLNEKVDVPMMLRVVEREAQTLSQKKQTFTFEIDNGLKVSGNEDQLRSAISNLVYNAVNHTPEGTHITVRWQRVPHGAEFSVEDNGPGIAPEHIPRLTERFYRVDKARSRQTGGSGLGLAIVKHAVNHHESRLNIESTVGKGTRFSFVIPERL

Molecule Nc1nc(-c2ccc(Br)cc2)cs1 [F1, 4-(4-bromophenyl)-1,3-thiazol-2-amine] has an MIC [1] greater than 500 µg/mL, an MBC ([2]; DSM20044, strain DSM 20044) of 250 µg/mL (≈ 980 µM) and an MIC ([2]; DSM20044, strain DSM 20044, read-out: MIC S. epidermidis DSM 20044) of 4 µg/mL (≈ 15.7 µM). It also gave an MIC ([2]; clinical isolate T7/3, read-out: MIC S. epidermidis T7/3) of 63 µg/mL (≈ 247 µM), an MIC ([2]; clinical isolate T37/8, read-out: MIC S. epidermidis T37/8) greater than 500 µg/mL and an MIC ([2]; clinical isolate T6119, read-out: MIC S. epidermidis T6119) greater than 500 µg/mL. The MIC ([2]; strain RP62A (biofilm producer), read-out: MIC S. epidermidis RP62A) was greater than 500 µg/mL, the MIC ([2]; strain RP62A/1 (non-biofilm producer), read-out: MIC S. epidermidis RP62A/1) was 250 µg/mL (≈ 980 µM) and the MIC ([2]; summary over clinical isolates, read-out: MICs for S. epidermidis clinical isolates) was 63 µg/mL (≈ 247 µM). The “solubility in kinase buffer” value [3] was “limited solubility”, the MIC (Pseudomonas aeruginosa) was greater than 500 µg/mL and the MIC (Acinetobacter baumannii) was greater than 500 µg/mL. It also gave an MIC (Streptococcus suis) greater than 500 µg/mL, an HC50 (Hemolysis assay) greater than 500 µg/mL and an MIC (Escherichia coli; ATCC25276, strain ATCC 25276, read-out: MIC E. coli ATCC 25276) greater than 500 µg/mL. The MIC (Escherichia coli; strain CFT 073, read-out: MIC E. coli CFT 073) was greater than 500 µg/mL, the “HK aggregation, PhoR^E” value (E. coli PhoR (PhoR^E)) was “do not cause HK aggregation” and the MIC (Staphylococcus aureus; ATCC reference strain 25293, read-out: MIC S. aureus 25293) was 125 µg/mL (≈ 490 µM). It also gave an MBC (Staphylococcus aureus; DSM20231, strain DSM 20231, read-out: MBC S. aureus DSM 20231) greater than 500 µg/mL, an MIC (Staphylococcus aureus; DSM20231, strain DSM 20231, read-out: MIC S. aureus DSM 20231) of 25 µg/mL (≈ 98 µM) and an MIC (Staphylococcus aureus; MRSA clinical isolate 145/08, read-out: MIC S. aureus 145/08) of 125 µg/mL (≈ 490 µM). It also gave an MIC (Staphylococcus aureus; MRSA clinical isolate 274/08, read-out: MIC S. aureus 274/08) of 125 µg/mL (≈ 490 µM), an MIC (Staphylococcus aureus; MRSA, MRSA clinical isolate T4/6, read-out: MIC S. aureus T4/6) of 125 µg/mL (≈ 490 µM) and an MIC (Staphylococcus aureus; MRSA, MRSA clinical isolate V4180, read-out: MIC S. aureus V4180) of 125 µg/mL (≈ 490 µM). It also gave an MIC (Staphylococcus aureus; MRSA, summary over strains, read-out: MICs for the MRSA strains and S. aureus 25293) of 125 to 500 µg/mL (≈ 490 to 1960 µM).
